PubChem BioAssay (NCI)
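96-well plates; 48 h exposure; 5 concentrations. Endpoints by linear interpolation between flanking doses. Not reached: highest tested concentration assigned. GI50 is the concentration that inhibits growth by half. The concentration for full growth arrest is given as TGI.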

Tests used:
Assay in all cases: NCI tumour cell line growth inhibition, 48 h
[1] = test system: 786-0 renal
[2] = test system: A549 NSCLC
[3] = test system: ACHN renal
[4] = test system: BT-549 breast
[5] = test system: CAKI-1 renal
[6] = test system: CCRF-CEM leukemia
[7] = test system: EKVX NSCLC
[8] = test system: HCC-2998 colon
[9] = test system: HCT-116 colon
[10] = test system: HCT-15 colon
[11] = test system: HOP-62 NSCLC
[12] = test system: HS 578T breast
[13] = test system: HT29 colon
[14] = test system: IGROV1 ovarian
[15] = test system: K-562 leukemia
[16] = test system: KM12 colon
[17] = test system: LOX IMVI melanoma
[18] = test system: M14 melanoma
[19] = test system: MALME-3M melanoma
[20] = test system: MCF7 breast
[21] = test system: MDA-MB-231 breast
[22] = test system: MDA-MB-435
[23] = test system: MOLT-4 leukemia
[24] = test system: NCI-H226 lung
[25] = test system: NCI-H23 lung
[26] = test system: NCI-H460 lung
[27] = test system: NCI-H522 lung
[28] = test system: NCI/ADR-RES ovarian
[29] = test system: OVCAR-3 ovarian
[30] = test system: OVCAR-4 ovarian
[31] = test system: OVCAR-5 ovarian
[32] = test system: OVCAR-8 ovarian
[33] = test system: PC-3 prostate
[34] = test system: RXF 393 renal
[35] = test system: SF-268 CNS
[36] = test system: SF-295 CNS
[37] = test system: SF-539 CNS
[38] = test system: SK-MEL-2 melanoma
[39] = test system: SK-MEL-28 melanoma
[40] = test system: SK-MEL-5 melanoma
[41] = test system: SN12C renal
[42] = test system: SNB-19 CNS
[43] = test system: SNB-75 CNS
[44] = test system: SR leukemia
[45] = test system: SW-620 colon
[46] = test system: T-47D breast
[47] = test system: TK-10 renal
[48] = test system: U251 CNS
[49] = test system: UACC-257 melanoma
[50] = test system: UACC-62 melanoma
[51] = test system: UO-31 renal
[52] = test system: COLO 205 colon
[53] = test system: DU-145 prostate
[54] = test system: HL-60(TB) leukemia
[55] = test system: HOP-92 NSCLC
[56] = test system: RPMI-8226 leukemia
[57] = test system: SK-OV-3 ovarian

With `CC[n+]1[b-](C(C)(C)C)n(/N=C(\C)C(C)(C)C)[b-](C(C)(C)C)[n+]1CC` the TGI [1] was > 100 µM, the TGI [2] was > 100 µM and the TGI [3] was > 100 µM. For the same compound, the TGI [4] was > 100 µM, the TGI [5] was > 100 µM and the TGI [6] was > 100 µM. For the same compound, the TGI [7] was > 100 µM, the TGI [8] was > 100 µM and the TGI [9] was > 100 µM. For the same compound, the TGI [10] was > 100 µM, the TGI [11] was > 100 µM and the TGI [12] was > 100 µM. For the same compound, the TGI [13] was > 100 µM, the TGI [14] was > 100 µM and the TGI [15] was > 100 µM. For the same compound, the TGI [16] was > 100 µM, the TGI [17] was > 100 µM and the TGI [18] was > 100 µM. The TGI [19] was > 100 µM, the TGI [20] was > 100 µM and the TGI [21] was > 100 µM. For the same compound, the TGI [22] was > 100 µM, the TGI [23] was > 100 µM and the TGI [24] was > 100 µM. For the same compound, the TGI [25] was > 100 µM, the TGI [26] was > 100 µM and the TGI [27] was > 100 µM. For the same compound, the TGI [28] was > 100 µM, the TGI [29] was > 100 µM and the TGI [30] was > 100 µM. For the same compound, the TGI [31] was > 100 µM, the TGI [32] was > 100 µM and the TGI [33] was > 100 µM. For the same compound, the TGI [34] was > 100 µM, the TGI [35] was > 100 µM and the TGI [36] was > 100 µM. The TGI [37] was > 100 µM, the TGI [38] was > 100 µM and the TGI [39] was > 100 µM. For the same compound, the TGI [40] was > 100 µM, the TGI [41] was > 100 µM and the TGI [42] was > 100 µM. For the same compound, the TGI [43] was > 100 µM, the TGI [44] was 56.8 µM and the TGI [45] was > 100 µM. The TGI [46] was > 100 µM, the TGI [47] was > 100 µM and the TGI [48] was > 100 µM. The TGI [49] was > 100 µM, the TGI [50] was > 100 µM and the TGI [51] was > 100 µM.

`COc1ccc(OC)c(-c2nc3sccn3c2/C=C2/C(=O)Nc3ccccc32)c1` showed a GI50 [1] of 0.273 µM, a TGI [1] of 18.6 µM and a GI50 [2] of 0.849 µM. For the same compound, the TGI [2] was > 60.2 µM, the GI50 [3] was 0.61 µM and the TGI [3] was 15.9 µM. It also gave a GI50 [4] of 0.335 µM, a TGI [4] of 3.13 µM and a GI50 [5] of 0.506 µM. For the same compound, the TGI [5] was 8.68 µM, the GI50 [6] was 0.273 µM and the TGI [6] was 5.37 µM. The GI50 [52] was 0.595 µM, the GI50 [53] was 2.1 µM and the TGI [53] was 26.5 µM. For the same compound, the GI50 [7] was 2.51 µM, the TGI [7] was 27.7 µM and the GI50 [9] was 0.142 µM. It also gave a TGI [9] of 1.52 µM, a GI50 [10] of 0.434 µM and a TGI [10] of 14.8 µM. It also gave a GI50 [54] of 0.0524 µM, a TGI [54] of 26.5 µM and a GI50 [11] of 0.123 µM. The TGI [11] was 4.41 µM, the GI50 [55] was 0.822 µM and the TGI [55] was 19.1 µM. It also gave a GI50 [12] of 0.415 µM, a TGI [12] of 2.3 µM and a GI50 [13] of 0.355 µM. For the same compound, the GI50 [14] was 2.1 µM, the TGI [14] was > 86.1 µM and the GI50 [15] was 0.49 µM. For the same compound, the TGI [15] was > 100 µM, the GI50 [16] was 0.119 µM and the TGI [16] was 2.06 µM. For the same compound, the GI50 [17] was 2.82 µM, the TGI [17] was 35.1 µM and the GI50 [18] was 0.323 µM. The TGI [18] was 1.41 µM, the GI50 [19] was 0.979 µM and the TGI [19] was 21.2 µM. The GI50 [20] was 0.476 µM, the TGI [20] was > 35.7 µM and the GI50 [21] was 2.11 µM. The TGI [21] was 25.3 µM, the GI50 [22] was 0.111 µM and the TGI [22] was 0.293 µM. It also gave a GI50 [23] of 0.0472 µM, a TGI [23] of 18.4 µM and a GI50 [24] of 1.4 µM. It also gave a TGI [24] of 4.89 µM, a GI50 [25] of 0.255 µM and a TGI [25] of 1.69 µM. The GI50 [26] was 0.511 µM, the TGI [26] was > 37.6 µM and the GI50 [27] was 0.294 µM. For the same compound, the TGI [27] was 17.3 µM, the GI50 [28] was 1.42 µM and the TGI [28] was 7.76 µM. The GI50 [29] was 0.235 µM, the TGI [29] was 0.586 µM and the GI50 [30] was 3.01 µM. For the same compound, the TGI [30] was > 38.7 µM, the GI50 [31] was 0.437 µM and the TGI [31] was 12.8 µM. The GI50 [32] was 0.945 µM, the TGI [32] was > 46.5 µM and the GI50 [33] was 0.359 µM. The TGI [33] was 14.2 µM, the GI50 [56] was 0.241 µM and the TGI [56] was 0.856 µM. The GI50 [34] was 0.553 µM, the TGI [34] was 17.9 µM and the GI50 [35] was 1.33 µM. For the same compound, the TGI [35] was 24.2 µM, the GI50 [36] was 0.248 µM and the TGI [36] was 0.635 µM. The GI50 [38] was 0.713 µM, the TGI [38] was 29.4 µM and the GI50 [39] was 1.96 µM. For the same compound, the TGI [39] was 25.2 µM, the TGI [40] was 0.997 µM and the GI50 [57] was 0.584 µM. The TGI [57] was 6.36 µM, the GI50 [41] was 4.65 µM and the TGI [41] was 33.8 µM. For the same compound, the GI50 [42] was 1.72 µM, the TGI [42] was > 22.7 µM and the GI50 [43] was 2.95 µM. For the same compound, the TGI [43] was > 100 µM, the GI50 [45] was 0.506 µM and the TGI [45] was 21.4 µM. The GI50 [46] was 7.82 µM, the TGI [46] was > 49.4 µM and the GI50 [47] was 1.29 µM. For the same compound, the TGI [47] was 20.2 µM, the GI50 [48] was 1.06 µM and the TGI [48] was 15 µM. For the same compound, the GI50 [49] was 11.6 µM, the TGI [49] was 34.7 µM and the GI50 [50] was 0.293 µM. The TGI [50] was 12.8 µM, the GI50 [51] was 1.1 µM and the TGI [51] was > 41 µM.
